Assay results published in patent US12077503B2, “Substituted cyclic amides and their use as herbicides” (FMC CORPORATION, priority 2015, dated 2024).

What was measured:
Type in all cases: in vivo
corn (Zea mays) [1] = test: Test G Pre-Emergence Protocol; conditions: Zea mays, pre-emergence, 312 h, evaluated after 13 days; for plant injury at 15.625 g/ha: 15.625 g ai/ha; for plant injury at 15.625 g/ha / plant injury at 250 g/ha: read-out: Corn damage rating (100=total damage to plant; 0=no damage to plant); for plant injury at 62.5 g/ha: 62.5 g ai/ha, 100=total damage to plant, 0=no damage to plant, read-out: plant damage rating, Corn; for plant injury at 250 g/ha: 250 g ai/ha
Outline: (§1)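 Pre-emergence spray, 15.625/62.5/250 g/ha, vehicle acetone:water 50:50 + 0.5% Tween 20, applied 1 d after sowing. Glasshouse 24/16° C, 14 h light, 65% RH, watered twice daily. Visual damage rating at 13 d, 0–100 scale.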

[2] = tested on: giant foxtail (Setaria faberi); test: Test G Pre-Emergence Protocol; conditions: Setaria faberi, pre-emergence, 312 h, evaluated after 13 days; for pest or weed control at 15.625 g/ha: 15.625 g ai/ha; for pest or weed control at 15.625 g/ha / pest or weed control at 250 g/ha: read-out: Foxtail, Giant damage rating (100=total damage to plant; 0=no damage to plant); for pest or weed control at 62.5 g/ha: 62.5 g ai/ha, 100=total damage to plant, 0=no damage to plant, read-out: plant damage rating, Foxtail, Giant; for pest or weed control at 250 g/ha: 250 g ai/ha
Outline: as §1

[3] = tested on: velvetleaf (Abutilon theophrasti); test: Test G Pre-Emergence Protocol; conditions: Abutilon theophrasti, pre-emergence, 312 h, evaluated after 13 days; for pest or weed control at 15.625 g/ha: 15.625 g ai/ha; for pest or weed control at 15.625 g/ha / pest or weed control at 250 g/ha: read-out: Velvetleaf damage rating (100=total damage to plant; 0=no damage to plant); for pest or weed control at 62.5 g/ha: 62.5 g ai/ha, 100=total damage to plant, 0=no damage to plant, read-out: plant damage rating, Velvetleaf; for pest or weed control at 250 g/ha: 250 g ai/ha
Outline: as §1

[4] = tested on: barnyardgrass (Echinochloa crus-galli); test: Test G Pre-Emergence Protocol; conditions: Echinochloa crus-galli, pre-emergence, 312 h, evaluated after 13 days; for pest or weed control at 15.625 g/ha: 15.625 g ai/ha, read-out: Barnyard grass damage rating (100=total damage to plant; 0=no damage to plant); for pest or weed control at 62.5 g/ha: 62.5 g ai/ha, 100=total damage to plant, 0=no damage to plant, read-out: plant damage rating, Barnyardgrass; for pest or weed control at 250 g/ha: 250 g ai/ha, read-out: Barnyardgrass damage rating (100=total damage to plant; 0=no damage to plant)
Outline: as §1

[5] = tested on: ivy-leaved morning glory (Ipomoea hederacea); test: Test G Pre-Emergence Protocol; conditions: Ipomoea, pre-emergence, 312 h, evaluated after 13 days; for pest or weed control at 15.625 g/ha: 15.625 g ai/ha, read-out: Morning-glory, Ivy-leaved damage rating (100=total damage to plant; 0=no damage to plant); for pest or weed control at 62.5 g/ha: 62.5 g ai/ha, 100=total damage to plant, 0=no damage to plant, read-out: plant damage rating, Morningglory, Ivy-leaved; for pest or weed control at 250 g/ha: 250 g ai/ha, read-out: Morningglory, Ivy-leaved damage rating (100=total damage to plant; 0=no damage to plant)
Outline: as §1

[6] = tested on: redroot pigweed (Amaranthus retroflexus); test: Test G Pre-Emergence Protocol; conditions: Amaranthus retroflexus, pre-emergence, 312 h, evaluated after 13 days; for pest or weed control at 15.625 g/ha: 15.625 g ai/ha; for pest or weed control at 15.625 g/ha / pest or weed control at 250 g/ha: read-out: Pigweed, Redroot damage rating (100=total damage to plant; 0=no damage to plant); for pest or weed control at 62.5 g/ha: 62.5 g ai/ha, 100=total damage to plant, 0=no damage to plant, read-out: plant damage rating, Pigweed, Redroot; for pest or weed control at 250 g/ha: 250 g ai/ha
Outline: as §1

corn (Zea mays) [7] = test: Test G Post-Emergence Protocol; conditions: Zea mays, post-emergence, 312 h; for plant injury at 15.625 g/ha: 15.625 g ai/ha, evaluated after 13 days (100=total damage to plant; 0=no damage to plant), read-out: Corn damage rating; for plant injury at 62.5 g/ha: 62.5 g ai/ha, read-out: Corn damage rating (100=total damage to plant; 0=no damage to plant); for plant injury at 62.5 g/ha / plant injury at 250 g/ha: evaluated after 13 days; for plant injury at 250 g/ha: 250 g ai/ha, read-out: damage to plant, Corn (100=total damage to plant; 0=no damage to plant)
Outline: (§2)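 Damage was rated 13 days after treatment from 0 (none) to 100 (plant killed). Compound was applied as a spray at 15.625, 62.5 or 250 g/ha in 50:50 acetone/water containing 0.5% Tween 20, onto 8-day-old potted plants kept in a glasshouse (24/16 °C, 14 h light, 65% humidity).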

[8] = tested on: giant foxtail (Setaria faberi); test: Test G Post-Emergence Protocol; conditions: Setaria faberi, post-emergence, 312 h; for pest or weed control at 15.625 g/ha: 15.625 g ai/ha, evaluated after 13 days (100=total damage to plant; 0=no damage to plant), read-out: Foxtail, Giant damage rating; for pest or weed control at 62.5 g/ha: 62.5 g ai/ha, read-out: Foxtail, Giant damage rating (100=total damage to plant; 0=no damage to plant); for pest or weed control at 62.5 g/ha / pest or weed control at 250 g/ha: evaluated after 13 days; for pest or weed control at 250 g/ha: 250 g ai/ha, read-out: damage to plant, Foxtail, Giant (100=total damage to plant; 0=no damage to plant)
Outline: as §2

[9] = tested on: velvetleaf (Abutilon theophrasti); test: Test G Post-Emergence Protocol; conditions: Abutilon theophrasti, post-emergence, 312 h; for pest or weed control at 15.625 g/ha: 15.625 g ai/ha, evaluated after 13 days (100=total damage to plant; 0=no damage to plant), read-out: Velvetleaf damage rating; for pest or weed control at 62.5 g/ha: 62.5 g ai/ha, read-out: Velvetleaf damage rating (100=total damage to plant; 0=no damage to plant); for pest or weed control at 62.5 g/ha / pest or weed control at 250 g/ha: evaluated after 13 days; for pest or weed control at 250 g/ha: 250 g ai/ha, read-out: damage to plant, Velvetleaf (100=total damage to plant; 0=no damage to plant)
Outline: as §2

[10] = tested on: barnyardgrass (Echinochloa crus-galli); test: Test G Post-Emergence Protocol; conditions: Echinochloa crus-galli, post-emergence, 312 h; for pest or weed control at 15.625 g/ha: 15.625 g ai/ha, evaluated after 13 days (100=total damage to plant; 0=no damage to plant), read-out: Barnyardgrass damage rating; for pest or weed control at 62.5 g/ha: 62.5 g ai/ha, read-out: Barnyardgrass damage rating (100=total damage to plant; 0=no damage to plant); for pest or weed control at 62.5 g/ha / pest or weed control at 250 g/ha: evaluated after 13 days; for pest or weed control at 250 g/ha: 250 g ai/ha, read-out: damage to plant, Barnyardgrass (100=total damage to plant; 0=no damage to plant)
Outline: as §2

[11] = tested on: ivy-leaved morning glory (Ipomoea hederacea); test: Test G Post-Emergence Protocol; conditions: Ipomoea, post-emergence, 312 h; for pest or weed control at 15.625 g/ha: 15.625 g ai/ha, evaluated after 13 days (100=total damage to plant; 0=no damage to plant), read-out: Morningglory, Ivy-leaved damage rating; for pest or weed control at 62.5 g/ha: 62.5 g ai/ha, read-out: Morningglory, Ivy-leaved damage rating (100=total damage to plant; 0=no damage to plant); for pest or weed control at 62.5 g/ha / pest or weed control at 250 g/ha: evaluated after 13 days; for pest or weed control at 250 g/ha: 250 g ai/ha, read-out: damage to plant, Morningglory, Ivy-leaved (100=total damage to plant; 0=no damage to plant)
Outline: as §2

[12] = tested on: redroot pigweed (Amaranthus retroflexus); test: Test G Post-Emergence Protocol; conditions: Amaranthus retroflexus, post-emergence, 312 h; for pest or weed control at 15.625 g/ha: 15.625 g ai/ha, evaluated after 13 days (100=total damage to plant; 0=no damage to plant), read-out: Pigweed, Redroot damage rating; for pest or weed control at 62.5 g/ha: 62.5 g ai/ha, read-out: Pigweed, Redroot damage rating (100=total damage to plant; 0=no damage to plant); for pest or weed control at 62.5 g/ha / pest or weed control at 250 g/ha: evaluated after 13 days; for pest or weed control at 250 g/ha: 250 g ai/ha, read-out: damage to plant, Pigweed, Redroot (100=total damage to plant; 0=no damage to plant)
Outline: as §2

Row | SMILES | plant injury at 15.625 g/ha (corn (Zea mays) [1]) [%] | plant injury at 62.5 g/ha (corn (Zea mays) [1]) [%] | plant injury at 250 g/ha (corn (Zea mays) [1]) [%] | pest or weed control at 15.625 g/ha [2] [%] | pest or weed control at 62.5 g/ha [2] [%] | pest or weed control at 250 g/ha [2] [%] | pest or weed control at 15.625 g/ha [3] [%] | pest or weed control at 62.5 g/ha [3] [%] | pest or weed control at 250 g/ha [3] [%] | pest or weed control at 15.625 g/ha [4] [%] | pest or weed control at 62.5 g/ha [4] [%] | pest or weed control at 250 g/ha [4] [%] | pest or weed control at 15.625 g/ha [5] [%] | pest or weed control at 62.5 g/ha [5] [%] | pest or weed control at 250 g/ha [5] [%] | pest or weed control at 15.625 g/ha [6] [%] | pest or weed control at 62.5 g/ha [6] [%] | pest or weed control at 250 g/ha [6] [%] | plant injury at 15.625 g/ha (corn (Zea mays) [7]) [%] | plant injury at 62.5 g/ha (corn (Zea mays) [7]) [%] | other results
1 | CN1C[C@@H](c2ccc(C(F)(F)F)cc2)[C@H](C(=O)Nc2ccccc2Cl)C1=O (racemic) [Compound 1598] | 0 | 10 | 70 | 60 | 80 | 90 | 0 | 10 | 60 | 0 | 70 | 80 | 10 | 20 | 40 | 10 | 40 | 50 | 0 | 40 | plant injury at 250 g/ha (corn (Zea mays) [7]): 60%; pest or weed control at 15.625 g/ha [8]: 80%; pest or weed control at 62.5 g/ha [8]: 80%; pest or weed control at 250 g/ha [8]: 80%; pest or weed control at 15.625 g/ha [9]: 0%; pest or weed control at 62.5 g/ha [9]: 20%; pest or weed control at 250 g/ha [9]: 50%; pest or weed control at 15.625 g/ha [10]: 30%; pest or weed control at 62.5 g/ha [10]: 80%; pest or weed control at 250 g/ha [10]: 70%; pest or weed control at 15.625 g/ha [11]: 30%; pest or weed control at 62.5 g/ha [11]: 60%; pest or weed control at 250 g/ha [11]: 70%; pest or weed control at 15.625 g/ha [12]: 30%; pest or weed control at 62.5 g/ha [12]: 50%; pest or weed control at 250 g/ha [12]: 70%
2 | Cc1ccc(NC(=O)[C@H]2C(=O)N(C)C[C@@H]2c2ccc(C(F)(F)F)cc2)c(C)c1C (racemic) [Compound 1448] | 0 | 0 | 0 | 0 | 20 | 60 | 0 | 0 | 0 | 0 | 0 | 0 | 0 | 0 | 0 | 0 | 0 | 0 | 0 | 0 | plant injury at 250 g/ha (corn (Zea mays) [7]): 10%; pest or weed control at 15.625 g/ha [8]: 0%; pest or weed control at 62.5 g/ha [8]: 0%; pest or weed control at 250 g/ha [8]: 0%; pest or weed control at 15.625 g/ha [9]: 0%; pest or weed control at 62.5 g/ha [9]: 0%; pest or weed control at 250 g/ha [9]: 0%; pest or weed control at 15.625 g/ha [10]: 0%; pest or weed control at 62.5 g/ha [10]: 0%; pest or weed control at 250 g/ha [10]: 0%; pest or weed control at 15.625 g/ha [11]: 0%; pest or weed control at 62.5 g/ha [11]: 0%; pest or weed control at 250 g/ha [11]: 0%; pest or weed control at 15.625 g/ha [12]: 0%; pest or weed control at 62.5 g/ha [12]: 0%; pest or weed control at 250 g/ha [12]: 30%
